The data set can be described thus: compatibility with other active ingredients in pharmaceutical formulations. It counts as physicochemical. As to conditions: especially with formoterol; relative to glycopyrronium bromide.

Turning to `C[N+]1(C)CCC(OC(=O)C(O)(c2ccccc2)C2CCCC2)C1.[Cl-]` (stereo not shown) [glycopyrronium chloride], the “compatibility with other active ingredients” value is “better compatibility”.

The record behind these values is US20110306650A1 (Chiesi Farmaceutici S.p.A., priority 2010, published 2011).
